Measurements taken from patent publication US20120328631A1, “EP1 INHIBITION” (UNIVERSITY OF ROCHESTER, priority 2010, published 2012).

Columns and labels:
Type in all cases: cell-based, mouse
[1] = test system: EP2 and EP4 receptors; test: cAMP-Glo Assay in bone marrow cell cultures; set-up: dose or concentration left out as unconfirmed; conditions: bone marrow cell cultures from wild type and EP1−/− mice
Protocol: Bone marrow cells were isolated from 10-week-old EP1^−/− mice and wild-type mice. After culturing for 7 days, cells were treated with PGE2 ([…]) or vehicle for 24 hours. […] The representative photomicrographs are shown at 200× original magnification. Statistical comparisons were performed using Student's T-test. “a” indicates p<0.05 compared to wild-type, “b” indicates p<0.05 compared to EP1^−/−. β-actin served as the loading control.
(§1) Bone marrow cells were isolated from 10-week-old EP1^−/− and C57BL/6J mice. Cells were cultured in 2 ml α-MEM containing 10% FBS at 5×10^6 cells/well in 6-well plates. After being cultured for 7 days, the medium was replaced with media containing beta-glycerophosphate and ascorbic acid, and the media was changed every two days thereafter. Cells were harvested on day 10, 12, 14, 17 and 21 after plating for alkaline phosphatase and alizarin red staining, and mRNA analysis by quantitative real-time PCR. Cell proliferation was examined using the Cell Proliferation ELISA BrdU (colorimetric) immunoassay kit (Roche; Indianapolis, Ind.) according to the manufacturer's instructions. Cell viability was examined using the CellTiter-Blue Cell Viability Assay (Promega; Madison, Wis.) according to the manufacturer's instructions. Intracellular cAMP activity in bone marrow cells was examined using the cAMP-Glo Assay (Promega) according to the manufacturer's instructions.

[2] = test system: fibronectin; test: Fibronectin expression in bone marrow cells (Western blotting, real-time PCR)
Protocol: Bone marrow cells were collected from 10-week-old EP1^−/− and wild-type mice and treated with 3 μM PGE2 for 24 hours before harvest. Total protein was extracted from the cultured cells at day 17 and RNA was extracted at days 10, 12, 14, 17 and 21 after culture. Western blotting (FIG. 10A) and real-time PCR (FIG. 10B) were performed to examine the expression levels of fibronectin. […] Statistical comparisons were performed using 2-way ANOVA followed by Dunnett's test. a=P<0.05 vs. wild-type, b=P<0.05 vs. control, c=P<0.05 vs. PGE2.
(§2) Relative RNA levels of EP1 and fibronectin were determined by real-time PCR (FIGS. 11A and 11B). Immunohistochemistry was performed using mouse fibronectin primary antibody on the femur fracture tissue samples collected from 10-week-old EP1^−/− and wild-type mice at 3 and 7 days post-fracture (FIG. 11C). Statistical comparisons were performed using 2-way ANOVA followed by Student's t-test. a=P<0.05 vs. wild-type, b=P<0.05 vs. control, c=P<0.05 vs. PGE2.
(§3) Mice were sacrificed post fracture at 3, 7, 10, 14, 21 and 28 days (N=4). Fracture callus tissue samples were carefully dissected from soft tissue and homogenized using the TissueLyzer (Qiagen; Valencia, Calif.). Total RNA was then extracted from homogenized samples by the RNeasy Fibrous Tissue Midi Kit (Qiagen) according to the manufacturer's instructions. One microgram aliquots of RNA were reverse transcribed into cDNA using the iScript cDNA Synthesis Kit (Bio-Rad; Hercules, Calif.). Real-time […] was performed using the Rotor Gene 6000 real-time DNA amplification system (Qiagen) according to the manufacturer's instruction. […]
Bone marrow cells were washed with cold phosphate-buffered saline (PBS) three times and lysed on ice in Golden Lysis Buffer (GLB) for 30 minutes as previously described (Li et al., Exp. Cell Res. 300:159-69 (2004)). […] The immune complexes were detected using NBT/BCIP substrate (Pierce Biotechnology).

[3] = test system: osteocalcin; test: Osteocalcin expression by real-time PCR in bone marrow cell cultures; conditions: cultures treated with SC19220 and PGE2, RNA
Protocol: (§4) An EP1 expression vector was transfected into the EP1^−/− bone marrow cells by electroporation. […] Bone marrow progenitor cells at day 12 after culture were treated with SC19220 (10 μm) for 30 minutes followed by treatment with PGE2 (3 μm). After 24 hours, cells were stained with Alizarin red (FIGS. 12C and 12D). RNA extracted from the cultures was examined for osteocalcin expression (FIG. 12E). Statistical comparisons were performed using Student's t-test. a=P<0.05 vs. control, b=P<0.05 vs. PGE2.
as §1, with “Intracellular cAMP activity in bone marrow cells was examined using the cAMP-Glo Assay (Promega) according to the manufacturer's instructions.” left out

[4] = test system: primary bone marrow stromal cells; test: Bone nodule formation / mineralization (Alizarin red staining) in bone marrow cell cultures
Protocol: as §4
Increasing concentrations of fibronectin were added to bone marrow cell cultures at day 12. 24 hours later, cells were stained with Alizarin Red (FIGS. 13A and 138) or harvested for real-time PCR (FIG. 13B). Statistical comparisons were performed using Student's t-test, a=P<0.05 vs. control.
as §1

[5] = test system: EP1 mRNA; test: siRNA knock down of EP1 expression in primary bone marrow stromal cells (real-time PCR); conditions: primary bone marrow stromal cells transfected with EP1 siRNA
Protocol: as §2, §3
To further confirm regulation of fibronectin by the PGE2-EP1 signaling pathway, siRNA as described above was used to knock down EP1 expression in primary bone marrow stromal cells. […] Fibronectin expression levels were examined by quantitative real-time PCR.

Q: For `CCCCC[C@H](O)/C=C/[C@H]1[C@H](O)CC(=O)[C@@H]1C/C=C\CCCC(=O)O` [PGE2], which “levels of cAMP” value [1] is on record?
A: similarly enhanced

Q: And the fibronectin expression ([2]; cells with control siRNA, quantitative real-time PCR)?
A: stimulate fibronectin expression

Q: And the “expression of fibronectin (protein and mRNA)” value ([2]; wild-type bone marrow cells compared with EP1−/− cells, 3 μM PGE2 for 24 hours)?
A: dramatically increased

Q: What does the source list for `CC(=O)NNC(=O)N1Cc2ccccc2Oc2ccc(Cl)cc21` [SC19220, 8-chloro-dibenz[b,f][1,4]oxazepine-10(11H)-carboxy-(2-acetyl)hydrazide]?
A: expression level of osteocalcin [3]: increased; bone nodule formation ([4]; primary bone marrow cell cultures at day 12, SC19220 (10 μm) for 30 minutes, then PGE2 (3 μm), 24 hours, Alizarin red): accelerated bone nodule formation; time in culture at which bone nodule formation was induced ([4]; wild-type cells, 12 day cultures treated with antagonist and PGE2 for 24 hours, untreated cultures typically form nodules following 14 days): ≤ 13 days

Q: Which results are given for “EP1 siRNA: siRNA used to knock down EP1 expression; example sequences SEQ ID NO:21 and SEQ ID NO:22 (chain 1 AGCUUGUCGGUAUCAUGGUTT; chain 2 ACUUCUAAGCACACCAGATT; chemistry not given here)”?
A: decrease of EP1 mRNA [5]: about 40%; PGE2-stimulated fibronectin expression ([2]; cells transfected with EP1 siRNA vs control siRNA, quantitative real-time PCR): inhibited

Q: What does the source list for fibronectin?
A: bone nodule formation ([4]; wild-type bone marrow cells, 5 μg/ml fibronectin added at day 12, 24 hours, alizarin red): did not alter bone nodule formation; mineralization ([4]; wild-type bone marrow cells, 12.5 μg/ml fibronectin added at day 12, 24 hours, alizarin red): significantly reduced mineralization; mineralization ([4]; wild-type bone marrow cells, 25 μg/ml fibronectin added at day 12, 24 hours, alizarin red): significantly reduced mineralization
